Source: article PMC9926234, “Iterative computational design and crystallographic screening identifies potent inhibitors targeting the Nsp3 macrodomain of SARS-CoV-2” (Proceedings of the National Academy of Sciences of the …, 2023)
Where two headings read alike, the source gives them in different places.

What was measured:
SARS-CoV-2 NSP3 Mac1 [1] = target: T1, SARS-CoV-2 NSP3 Mac1 (Severe acute respiratory syndrome coronavirus 2, UniProt P0DTD1); format: binding; details: for Refined occupancy: ligand occupancy after refinement (phenix.refine)
SARS-CoV-2 NSP3 Mac1 [2] = target: T1, SARS-CoV-2 NSP3 Mac1; format: binding; set-up: contains a conserved macrodomain enzyme (Mac1); details: for Spearman est (compound concentration vs apparent Tm): DSF dose responsiveness, 1 µM nsp3 mac1, adj p given
In short: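 Differential scanning fluorimetry using 5 µM Fluorescent Yellow dye in place of SYPRO Orange. Compounds run in triplicate at seven two-fold dilutions from 1,000 or 100 μM, with ΔTma taken against a DMSO control in the same plate region. Dose-response significance assessed by Spearman's coefficient between concentration and ΔTma.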

[3] = PanDDA event map, 1 minus background density correction, crystal soaking of Mac1
[4] = ligand modeled from this dataset, compound concentration 100 mM
[5] = true hit = binding in crystallographic soaking or the HTRF-based binding assay
[6] = overall hit flag: binding in crystallographic soaking or the HTRF-based binding assay
[7] = maximal thermal upshift vs DMSO control
[8] = PanDDA 1-BDC value of the event, crystal soak, compound concentration 100 mM, per dataset
[9] = crystal soak, compound concentration 100 mM, per dataset
[10] = PanDDA 1-BDC (background density correction) of the event, crystal soak 100 mM, PanDDA run dmso_34
[11] = crystal soak, compound concentration 100 mM, PanDDA run dmso_34, series docking_lead-like_1
[12] = ligand modeled in the crystal structure, crystal soak 100 mM, PanDDA run dmso_34

Row | Structure (SMILES) | 1-BDC (PanDDA) (SARS-CoV-2 NSP3 Mac1 [1]; [3]) | Modeled? (SARS-CoV-2 NSP3 Mac1 [1]; [4]) | Refined occupancy (SARS-CoV-2 NSP3 Mac1 [1]; crystal soaking of Mac1) | HIT* (SARS-CoV-2 NSP3 Mac1 [1]; [5]) | Spearman est (compound concentration vs apparent Tm) (SARS-CoV-2 NSP3 Mac1 [2]) | DSF max dTma (SARS-CoV-2 NSP3 Mac1 [2]; maximal thermal upshift) | HIT* (SARS-CoV-2 NSP3 Mac1 [1]; [6]) | DSF max dTma (SARS-CoV-2 NSP3 Mac1 [2]; [7]) [°C] | 1-BDC (SARS-CoV-2 NSP3 Mac1 [1]; [3]) | 1-BDC (SARS-CoV-2 NSP3 Mac1 [1]; [8]) | PanDDA hit? (SARS-CoV-2 NSP3 Mac1 [1]; [9]) | Modeled? (SARS-CoV-2 NSP3 Mac1 [1]; ligand modeled in the crystal structure, crystal soak, compound concentration 100 mM, per dataset) | 1-BDC (SARS-CoV-2 NSP3 Mac1 [1]; [10]) | PanDDA hit? (SARS-CoV-2 NSP3 Mac1 [1]; [11]) | Modeled? (SARS-CoV-2 NSP3 Mac1 [1]; [12])
1 | CC1C(C(=O)O)CCCN1S(=O)(=O)c1c[nH]c2ncc(Cl)cc12 (stereo not shown) [REAL300016493575] | 0.09 | TRUE | 18 | Y | −0.16 | 0.15 ˚C |  |  |  |  |  |  |  |  | 
2 | Cc1nc(Cn2cnc3c(N)nc(N)nc32)cs1 [Z8569] |  |  |  |  |  |  | Y | 0.53 |  |  |  |  |  |  | 
3 | O=C(O)[C@@H]1CCCN(C(=O)c2ccnc3[nH]ccc23)C1 [REAL250000548538] |  | TRUE | 16 | Y | 0.27 | 0.25 ˚C |  |  | 0.08 |  |  |  |  |  | 
4 | CN(CC(=O)O)C(=O)c1ccc2n[nH]c(=O)n2c1 [REAL250003774401] |  |  | 32 | Y | −0.3 | 0 ˚C |  |  | 0.16 |  |  |  |  |  | 
5 | O=C1CCCN1CCSc1ncnc2[nH]cnc12 [Z9920] |  |  |  |  |  |  | Y | 0.95 |  |  |  |  |  |  | 
6 | CC1(C(=O)O)CCN(C(=O)Cc2c[nH]c3nccc(Cl)c23)C1 (stereo not shown) [FRESH00014134848] |  |  | 22 | Y | 0.41 | 0.07 ˚C |  |  | 0.11 |  |  |  |  |  | 
7 | Cc1cc(S(=O)(=O)Nc2cnc3[nH]ccc3c2)n(C2CCCC2)n1 [FRESH00010608284] |  |  | 30 | Y | −0.51 | 0.06 ˚C |  |  | 0.15 |  |  |  |  |  | 
8 | Cc1noc(-c2ccnc(-c3ccnc4[nH]ccc34)c2)n1 [ZINC001240411747] | 0.07 | TRUE | 14 | Y | −0.16 | 0.04 ˚C |  |  |  |  |  |  |  |  | 
9 | Cc1nnc(CNc2cnc(N)c(Cl)n2)n1C1CC1 [ZINC000893101964] |  |  | 8 | Y | −0.12 | 0.12 ˚C |  |  | 0.04 | 0.04 | TRUE | TRUE |  |  | 
10 | CNS(=O)(=O)c1cc(C(=O)N2CCc3nc(N)ncc3C2)co1 [FRESH00014649046] | 0.06 | TRUE | 12 | Y | 0.3 | 0.29 ˚C |  |  |  | 0.07 | TRUE |  |  |  | 
11 | O=C(c1cn[nH]c(=O)c1)N1CCC(CF)(C(=O)O)C1 (stereo not shown) [REAL250001448407] |  |  | 24 | Y | −0.24 | 0 ˚C |  |  | 0.12 |  |  |  |  |  | 
12 | Nc1ncnc2c1ncn2Cc1ccc(Cl)cn1 [ZINC000559260078] |  |  | 30 |  | 0.88 |  | Y | 0.98 | 0.15 |  |  |  | 0.15 | TRUE | TRUE
13 | N#Cc1ccc(OCCn2cnc3c(N)ncnc32)cc1 [ZINC000043461211] |  |  | 62 |  | 0.26 |  | Y | 0.45 | 0.31 |  |  |  | 0.31 | TRUE | TRUE
14 | O=C(Cc1ccc(-n2cccn2)cc1)OCC1CCCNC1=O (stereo not shown) [Z5505] |  |  |  |  |  |  | Y | 0.16 |  |  |  |  |  |  | 
